According to EP0183439B1, “Polycyclic compounds, their preparation and use and formulations containing them” (THE WELLCOME FOUNDATION LIMITED, priority 1984, dated 1986):
Structures can show the parent of a compound that is named as a salt.

What was measured:
[1] = test system: P388/0 tumor cells; assay: Lymphocytic Leukemia P388/0 Test; assay type: in vivo, CD2-F₁ mice; settings: ratio of median survival time treated/control at optimal dose; i.p. days 1, 5, 9; 10⁶ P388/0 cells i.p. on day 0
Text: Methods for evaluating the antitumor activity of these compounds are essentially those used in the Tumor Panel by the Development Therapeutics Program, Division of Cancer Treatment, National Cancer Institute, A. Goldin, et al., Methods in Cancer Research, Vol. XVI, p. 165, Academic Press (1979). Some modifications, in dose level and schedule have been made to increase the testing efficiency.
(§1) CD2-F₁ mice, of the same sex, weighing within a 3 g range surrounding 20 g, are used for this test. Control and test animals are injected intraperitoneally with a suspension of 10⁶ viable P388/0 tumor cells on day 0. In each test several dose levels which bracket the LD₂₀ for the compound are evaluated; each dose level group contains 6 animals. The test compounds are prepared either in physiologic saline containing 0.05% Tween 80 or distilled water containing 5% dextrose and are administered intraperitoneally on days, 1, 5, and 9 relative to tumor implant.
Doses are on a mg/kg basis according to individual animals' body weights. The day of death for each animal is recorded, the median identified for each group and the ratios of median survival time for treated (T)/control (C) groups are calculated. The criterion for activity is T/C x 100 120%.

[2] = LD20 in the P388/0 test (toxicity in mice); assay type: in vivo
Method: as §1

[3] = intraperitoneally on days 1, 5 and 9

Compound | T/C x 100% (Exluding 30 Day Survivors) [1] | LD₂₀ [2, 3] [mg/kg] | LD₂₀ ([2]; mouse, in vivo, ip) [mg/kg]
CC(CO)(CO)NCc1cc2ccsc2c2ccccc12 [Example 10C, 2-Methyl-2-[(naphtho[1,2-b]thiophene-5-ylmethyl)amino]-1,3-propanediol] | +125% | 115 | –
CC(CO)(CO)NCc1ccc2sc3ccccc3c2c1.Cl [Example 2, 2-[(2-Dibenzothiophenylmethyl)amino]-2-methyl-1,3-propanediol hydrochloride] | +130% | 200 | –
CC(CO)(CO)NCc1c2ccccc2nc2ccccc12 [Example 13, 2-[(9-Acridinylmethyl)amino]-2-methyl-1,3-propanediol dihydochoride] | +130% | – | 540
CC(CO)(CO)NCc1ccc2oc3ccccc3c2c1.Cl [Example 5, 2-[(2-Dibenzofuranylmethyl)amino]-2-methyl-1,3-propanediol hydrochloride] | +120% | 225 | –
CC(CO)(CO)NCc1cccc2c1sc1ccccc12.Cl [Example 3, 2-[(4-Dibenzothiophenylmethyl)amino]-2-methyl-1,3-propanediol hydrochloride] | +155% | 200 | –
CC(CO)(CO)NCc1cccc2oc3ccccc3c12 [Example 4B, 2-[(1-Dibenzofuranylmethyl)amino]-2-methyl-1,3-propanediol hydrochloride] | +140% | 200 | –
CC(CO)(CO)NCc1c2ccccc2cc2sccc12 [Example 6B, 2-[(Naphtho[2,3-b]thiophen-4-ylmethyl)amino]-2-methyl-1,3-propanediol hydrochloride 1/20 hydrate] | +125% | – | 150
CC(CO)(CO)NCc1cccc2sc3ccccc3c12 [Example 1, 2-[(1-Dibenzothiophenylmethyl)amino]-2-methyl-1,3-propanediol hydrochloride] | +140% | – | 240
